Measured values reported in patent US20050033056A1, “Hydroxylated indole derivatives and uses thereof” (priority 2001, published 2005).

Columns and labels:
[1] = tested on: primary culture of human hepatocytes; assay: Morphology of primary human hepatocytes during treatment; assay type: cell-based; details: cells exposed to Compound 1 compared with control cells
Method: Upon receiving a primary culture of human hepatocytes in 6-well plates, the culture medium containing streptomycin/penicillin was refreshed (2 ml/well). […] Compound 1 stock solution was added to the culture medium at a 1:400 ratio (v/v). The culture medium and testing compounds were replenished every 24 hours.

CYP2C19 = CYP2C19 (Homo sapiens, UniProt P33261); assay: Compound 1 metabolism / metabolite formation by recombinant CYP2C19; assay type: in vitro ADME; design: purchased Gentest Corp. (Woburn, Mass.); host or cells: insect cells (microsomal preparation)
Chain of CYP2C19 (P33261 whole entry): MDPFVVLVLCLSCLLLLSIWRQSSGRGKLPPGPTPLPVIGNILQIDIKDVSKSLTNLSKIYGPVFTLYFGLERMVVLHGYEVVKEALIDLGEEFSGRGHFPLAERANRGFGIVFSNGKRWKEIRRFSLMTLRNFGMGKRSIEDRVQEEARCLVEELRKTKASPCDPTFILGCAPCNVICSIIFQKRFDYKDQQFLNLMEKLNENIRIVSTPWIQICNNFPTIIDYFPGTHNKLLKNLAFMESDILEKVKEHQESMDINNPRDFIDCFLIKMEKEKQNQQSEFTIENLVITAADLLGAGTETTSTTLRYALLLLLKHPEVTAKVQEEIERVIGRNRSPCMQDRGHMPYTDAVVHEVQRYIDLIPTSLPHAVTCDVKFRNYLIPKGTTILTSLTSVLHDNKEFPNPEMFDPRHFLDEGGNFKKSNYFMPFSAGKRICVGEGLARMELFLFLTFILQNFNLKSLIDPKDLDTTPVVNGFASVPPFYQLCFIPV
Method: (§1) The metabolism of Compound 1 was determined by the disappearance of Compound 1 or the appearance of Compound 1 metabolites in reaction mixtures as compared to respective controls. Compound 1 was incubated in the reconstituted in vitro reaction systems containing pooled human liver S9 fractions, microsomal preparations, or recombinant hepatic CYP forms, including CYP1A2, CYP2C9, CYP2C19, CYP2D6, CYP2E1, and CYP3A4. The reaction mixture (total volume of 250 μL) contained 0.5 mg of liver microsomal protein, 50 or 25 pmol of recombinant CYP, and Compound 1 (50-80 μM) in 50 mM Tris buffer containing 15 mM MgCl2 (pH 7.4). After incubating at 37° C. with gentle shaking for 1 minute, the reaction was initiated by adding 25 μL of NADPH solution (20 mg/mL), and was carried out for 1 hour. The reaction was terminated by quickly cooling the test tube on ice, followed by the addition of an equal volume of 100% methanol. The samples were centrifuged in a desktop centrifuge at 14,000 rpm for 5 minutes, and the supernatants were filtered through syringe filters (13 mm, 0.45 μm). The filtrates were subjected to analysis using LC/MS (ion trap) or LC/MS/MS.
(§2) 1. LC/MS (LCQ ion trap mass spectrometer, Finnigan Corp., San Jose, Calif.): Hewlett Packard 1100 HPLC system (Waldbronn, Germany) consisted of a binary pump, an autosampler, a column compartment unit, and an online variable wavelength UV detector (VWD). The detector was monitored at 270 nm, which is the UVmax of Compound 1 predetermined by scanning between 225-400 nm using a photodiode array detector (PDA). The metabolites were separated on a Hewlett Packard Eclipse C18 column (150×2.1 mm). The mobile phases were 10 nmM ammonium acetate at pH 4.8 (A) and acetonitrile (B). The gradient (B) was 10% (0-6 minutes), 22% (12-22 minutes), 90% (25-30 minutes), and 10% (31 minutes and after). The flow rate was 0.25 mL/minute. Software Navigator (Version 1.2, Finnigan Corp.) was used to control the HPLC and MS and to acquire the data. The MS was operated at positive electrospray ionization (ESI) with 5.2 kV ionization potential and 220° C. heated capillary temperature. The product ion spectra were generated under 24V collision energy, which was optimized for the fragmentation of Compound 1.
2. LC/MS/MS (SCIEX API2000 triple quadrupole mass spectrometer, PE Biosystem, Foster City, Calif.): The same HPLC system described above was coupled with a tandem mass spectrometer. The metabolites were separated on a Sulpelco Discovery C18 column (150×2.1 mm), and the mobile phase described previously was run at 1.0 mL/min with a 1:10 split. The gradient (B) was 20% (0-6 minutes), 60% (14-18 minutes), 95% (20-24 minutes), and 20% (25 minutes and after). The operation of the HPLC and the MS/MS was controlled by MacChrom (Version 1.6, PE Biosystem). […]

CYP2D6 = CYP2D6 (Homo sapiens, UniProt P10635); assay: Compound 1 metabolism / metabolite formation by recombinant CYP2D6; assay type: in vitro ADME; design: purchased Gentest Corp. (Woburn, Mass.); host or cells: insect cells (microsomal preparation)
Chain of CYP2D6 (P10635 whole entry): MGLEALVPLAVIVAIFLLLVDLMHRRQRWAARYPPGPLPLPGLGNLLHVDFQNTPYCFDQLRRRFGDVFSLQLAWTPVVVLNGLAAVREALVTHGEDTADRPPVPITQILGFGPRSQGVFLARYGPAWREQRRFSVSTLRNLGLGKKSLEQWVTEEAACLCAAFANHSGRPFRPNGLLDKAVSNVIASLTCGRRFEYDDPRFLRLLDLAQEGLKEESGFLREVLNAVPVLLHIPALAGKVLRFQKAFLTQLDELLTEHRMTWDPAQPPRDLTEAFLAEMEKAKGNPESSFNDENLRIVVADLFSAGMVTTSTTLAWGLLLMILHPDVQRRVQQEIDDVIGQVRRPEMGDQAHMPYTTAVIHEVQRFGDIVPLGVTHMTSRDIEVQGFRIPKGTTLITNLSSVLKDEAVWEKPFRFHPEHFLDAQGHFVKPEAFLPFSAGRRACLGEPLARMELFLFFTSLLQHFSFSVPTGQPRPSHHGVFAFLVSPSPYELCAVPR
Method: as §1
as §2, with “The MS was operated at positive electrospray ionization (ESI) with 5.2 kV ionization potential and 220° C. heated capillary temperature. The product ion spectra were generated under 24V collision energy, which was optimized for the fragmentation of Compound 1.” left out

CYP3A4 = CYP3A4 (Homo sapiens, UniProt P08684); assay: Compound 1 metabolism / metabolite formation by recombinant CYP3A4; assay type: in vitro ADME; design: purchased Gentest Corp. (Woburn, Mass.); host or cells: insect cells (microsomal preparation)
Chain of CYP3A4 (P08684 whole entry): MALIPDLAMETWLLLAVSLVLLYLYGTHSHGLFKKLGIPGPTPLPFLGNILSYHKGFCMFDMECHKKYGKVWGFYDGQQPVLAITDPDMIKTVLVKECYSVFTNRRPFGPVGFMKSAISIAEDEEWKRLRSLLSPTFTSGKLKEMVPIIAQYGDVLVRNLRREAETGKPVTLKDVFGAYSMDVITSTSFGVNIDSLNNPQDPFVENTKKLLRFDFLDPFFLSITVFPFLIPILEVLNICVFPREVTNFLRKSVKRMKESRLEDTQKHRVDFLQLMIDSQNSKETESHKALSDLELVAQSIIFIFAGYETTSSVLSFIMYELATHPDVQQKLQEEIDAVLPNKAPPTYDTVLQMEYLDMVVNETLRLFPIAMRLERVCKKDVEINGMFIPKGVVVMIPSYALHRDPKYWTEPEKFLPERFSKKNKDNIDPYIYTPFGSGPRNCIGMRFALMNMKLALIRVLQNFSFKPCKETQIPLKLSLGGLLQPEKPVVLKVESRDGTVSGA
Method: as §1
as §2, with “The MS was operated at positive electrospray ionization (ESI) with 5.2 kV ionization potential and 220° C. heated capillary temperature. The product ion spectra were generated under 24V collision energy, which was optimized for the fragmentation of Compound 1.” left out

[2] = approximately 50 μM of Compound 1

## CNC(=O)Cc1ccc2ccn(C3CCN(CCc4ccccc4F)CC3)c2c1 [Compound 1, N-methyl-[1-[1-(2-fluorophenethyl)piperidine-4-yl]-1H-indol-6-yl] acetamide]
[1]
  morphologic changes of hepatocytes: marked morphologic changes were not observed
CYP2C19; [2]
  metabolism of Compound 1 by CYP2C19 (in words): metabolized
CYP2C19; recombinant CYP2C19, estimated by UV absorbance at 270 nm, metabolite formed or Compound 1 left after 1 hour with NADPH
  Rel. Amount (%): 42%
CYP2D6; [2]
  metabolism of Compound 1 by CYP2D6 (in words): metabolized
CYP2D6; recombinant CYP2D6, estimated by UV absorbance at 270 nm, metabolite formed or Compound 1 left after 1 hour with NADPH
  Rel. Amount (%): 78%
CYP3A4; [2]
  metabolism of Compound 1 by CYP3A4 (in words): metabolized
CYP3A4; recombinant CYP3A4, estimated by UV absorbance at 270 nm, metabolite formed or Compound 1 left after 1 hour with NADPH
  Rel. Amount (%): 23%
